Test results published in ChEMBL document CHEMBL5303765, “Data for DCP probe BAY-7081” (2023).

Experiments:
[1] = biological target: Casein kinase II subunit alpha (Homo sapiens) (UniProt P68400); assay: CSNK2A1 SGC Tm panel (DSF); settings: for ΔTm: Compound concentration 10.0 uM
[2] = biological target: T1, Mitogen-activated protein kinase 13 (Homo sapiens) (UniProt O15264); assay: MAPK13 SGC Tm panel (DSF); settings: for ΔTm: Compound concentration 10.0 uM
T1 sequence (whole entry): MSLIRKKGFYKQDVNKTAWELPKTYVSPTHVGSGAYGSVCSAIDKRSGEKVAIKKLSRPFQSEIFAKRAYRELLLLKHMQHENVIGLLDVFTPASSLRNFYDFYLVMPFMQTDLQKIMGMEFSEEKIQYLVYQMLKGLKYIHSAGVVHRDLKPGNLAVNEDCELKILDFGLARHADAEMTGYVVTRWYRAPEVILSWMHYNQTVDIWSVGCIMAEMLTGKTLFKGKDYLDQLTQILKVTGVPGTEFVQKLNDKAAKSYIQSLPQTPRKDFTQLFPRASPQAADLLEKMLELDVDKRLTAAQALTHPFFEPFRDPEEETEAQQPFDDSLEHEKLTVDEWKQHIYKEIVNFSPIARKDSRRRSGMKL

[3] = biological target: Serine/threonine-protein kinase Nek7 (Homo sapiens) (UniProt Q8TDX7); assay: NEK7 SGC Tm panel (DSF); settings: for ΔTm: Compound concentration 10.0 uM
[4] = biological target: Dual specificity mitogen-activated protein kinase kinase 1 (Homo sapiens) (UniProt Q02750); assay: MAP2K1 SGC Tm panel (DSF); settings: for ΔTm: Compound concentration 10.0 uM
[5] = biological target: SRSF protein kinase 1 (Homo sapiens) (UniProt Q96SB4); assay: SRPK1 SGC Tm panel (DSF); settings: for ΔTm: Compound concentration 10.0 uM
[6] = biological target: T2, Ephrin type-B receptor 3 (Homo sapiens) (UniProt P54753); assay: EPHB3 SGC Tm panel (DSF); settings: for ΔTm: Compound concentration 10.0 uM
T2 sequence (whole entry): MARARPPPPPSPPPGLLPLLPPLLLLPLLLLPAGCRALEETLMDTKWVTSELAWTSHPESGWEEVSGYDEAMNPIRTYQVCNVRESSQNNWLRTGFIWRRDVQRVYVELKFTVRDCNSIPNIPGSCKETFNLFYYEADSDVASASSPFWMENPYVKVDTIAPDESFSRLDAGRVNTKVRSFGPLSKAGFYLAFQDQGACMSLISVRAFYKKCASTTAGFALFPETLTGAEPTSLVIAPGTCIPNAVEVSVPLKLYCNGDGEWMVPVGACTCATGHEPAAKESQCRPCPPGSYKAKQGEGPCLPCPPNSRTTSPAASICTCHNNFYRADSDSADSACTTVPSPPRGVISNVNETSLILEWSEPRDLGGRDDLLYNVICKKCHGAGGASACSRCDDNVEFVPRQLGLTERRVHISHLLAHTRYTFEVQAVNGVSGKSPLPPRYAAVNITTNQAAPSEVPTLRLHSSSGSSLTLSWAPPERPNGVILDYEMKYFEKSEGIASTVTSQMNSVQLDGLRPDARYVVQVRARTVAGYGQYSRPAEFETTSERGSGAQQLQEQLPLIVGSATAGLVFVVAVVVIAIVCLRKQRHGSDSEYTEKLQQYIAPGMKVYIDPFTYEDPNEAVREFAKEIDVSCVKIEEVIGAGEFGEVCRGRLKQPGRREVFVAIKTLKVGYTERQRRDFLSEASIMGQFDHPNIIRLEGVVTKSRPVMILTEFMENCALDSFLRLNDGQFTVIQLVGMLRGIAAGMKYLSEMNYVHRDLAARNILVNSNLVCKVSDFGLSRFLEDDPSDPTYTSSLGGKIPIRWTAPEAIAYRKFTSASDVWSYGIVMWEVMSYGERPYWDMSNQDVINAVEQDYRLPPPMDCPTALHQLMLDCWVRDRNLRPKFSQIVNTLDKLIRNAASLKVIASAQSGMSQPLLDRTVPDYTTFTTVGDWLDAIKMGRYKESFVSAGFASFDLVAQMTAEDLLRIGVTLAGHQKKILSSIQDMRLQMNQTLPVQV

[7] = biological target: Ephrin type-A receptor 5 (Homo sapiens) (UniProt P54756); assay: EPHA5 SGC Tm panel (DSF); settings: for ΔTm: Compound concentration 10.0 uM
[8] = biological target: T3, Serine/threonine-protein kinase Nek2 (Homo sapiens) (UniProt P51955); assay: NEK2 SGC Tm panel (DSF); settings: for ΔTm: Compound concentration 10.0 uM
T3 sequence (whole entry): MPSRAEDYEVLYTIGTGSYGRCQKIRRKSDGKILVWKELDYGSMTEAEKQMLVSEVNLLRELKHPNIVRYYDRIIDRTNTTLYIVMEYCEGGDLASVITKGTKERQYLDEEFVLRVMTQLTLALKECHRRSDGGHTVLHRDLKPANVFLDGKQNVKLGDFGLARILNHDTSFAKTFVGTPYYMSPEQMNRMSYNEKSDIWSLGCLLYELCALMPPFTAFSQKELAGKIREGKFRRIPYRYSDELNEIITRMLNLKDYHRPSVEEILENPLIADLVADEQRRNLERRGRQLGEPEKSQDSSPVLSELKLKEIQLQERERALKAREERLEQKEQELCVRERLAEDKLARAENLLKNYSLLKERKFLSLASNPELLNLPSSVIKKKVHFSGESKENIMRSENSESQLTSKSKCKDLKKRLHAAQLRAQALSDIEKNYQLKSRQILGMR

[9] = biological target: 3',5'-cyclic-AMP phosphodiesterase 4A (Homo sapiens) (UniProt P27815); assay: Panlabs assay PDE4A1A; set-up: compound concentration 10 uM; settings: at 10 µM
[10] = biological target: Serine/threonine-protein kinase pim-1 (Homo sapiens) (UniProt P11309); assay: PIM1 SGC Tm panel (DSF); settings: for ΔTm: Compound concentration 10.0 uM
[11] = biological target: Serine/threonine-protein kinase 26 (Homo sapiens) (UniProt Q9P289); assay: MST4 SGC Tm panel (DSF); settings: for ΔTm: Compound concentration 10.0 uM
[12] = biological target: GABA transporter (Rattus norvegicus) (UniProt P31647+P23978+P31646+P48056); assay: Transporter, GABA Eurofins Panlabs panel; type: protein assay; settings: Compound concentration 10.0 uM
[13] = biological target: 3',5'-cyclic-AMP phosphodiesterase 7B (Homo sapiens, UniProt Q9NP56); assay: 3H-cAMP and 3H-cGMP Scintillation Proximity Assay (PDE7B)
[14] = biological target: GABA-A receptor; anion channel (Rattus norvegicus) (UniProt O09028+P15431+P18506+P18508+P19969+P20236+P23574+P23576+P28471+P28473+P30191+P62813+P63079+P63138+Q91ZM7+Q9ES14); assay: GABAA, Muscimol, Central Eurofins Panlabs panel; type: protein-complex assay; settings: Compound concentration 10.0 uM
[15] = biological target: Histamine H3 receptor (Homo sapiens) (UniProt Q9Y5N1); assay: Histamine H3 Eurofins Panlabs panel; settings: Compound concentration 10.0 uM
[16] = biological target: D(2) dopamine receptor (Homo sapiens) (UniProt P14416); assay: Dopamine D2S Eurofins Panlabs panel; settings: Compound concentration 10.0 uM
[17] = biological target: Adenosine Transporter (Cavia porcellus) (UniProt H0V4R7+H0UUG1+H0V3Z5); assay: Transporter, Adenosine Eurofins Panlabs panel; type: protein assay; settings: Compound concentration 10.0 uM

Chain of Ephrin type-A receptor 5 (Homo sapiens) (P54756 whole entry): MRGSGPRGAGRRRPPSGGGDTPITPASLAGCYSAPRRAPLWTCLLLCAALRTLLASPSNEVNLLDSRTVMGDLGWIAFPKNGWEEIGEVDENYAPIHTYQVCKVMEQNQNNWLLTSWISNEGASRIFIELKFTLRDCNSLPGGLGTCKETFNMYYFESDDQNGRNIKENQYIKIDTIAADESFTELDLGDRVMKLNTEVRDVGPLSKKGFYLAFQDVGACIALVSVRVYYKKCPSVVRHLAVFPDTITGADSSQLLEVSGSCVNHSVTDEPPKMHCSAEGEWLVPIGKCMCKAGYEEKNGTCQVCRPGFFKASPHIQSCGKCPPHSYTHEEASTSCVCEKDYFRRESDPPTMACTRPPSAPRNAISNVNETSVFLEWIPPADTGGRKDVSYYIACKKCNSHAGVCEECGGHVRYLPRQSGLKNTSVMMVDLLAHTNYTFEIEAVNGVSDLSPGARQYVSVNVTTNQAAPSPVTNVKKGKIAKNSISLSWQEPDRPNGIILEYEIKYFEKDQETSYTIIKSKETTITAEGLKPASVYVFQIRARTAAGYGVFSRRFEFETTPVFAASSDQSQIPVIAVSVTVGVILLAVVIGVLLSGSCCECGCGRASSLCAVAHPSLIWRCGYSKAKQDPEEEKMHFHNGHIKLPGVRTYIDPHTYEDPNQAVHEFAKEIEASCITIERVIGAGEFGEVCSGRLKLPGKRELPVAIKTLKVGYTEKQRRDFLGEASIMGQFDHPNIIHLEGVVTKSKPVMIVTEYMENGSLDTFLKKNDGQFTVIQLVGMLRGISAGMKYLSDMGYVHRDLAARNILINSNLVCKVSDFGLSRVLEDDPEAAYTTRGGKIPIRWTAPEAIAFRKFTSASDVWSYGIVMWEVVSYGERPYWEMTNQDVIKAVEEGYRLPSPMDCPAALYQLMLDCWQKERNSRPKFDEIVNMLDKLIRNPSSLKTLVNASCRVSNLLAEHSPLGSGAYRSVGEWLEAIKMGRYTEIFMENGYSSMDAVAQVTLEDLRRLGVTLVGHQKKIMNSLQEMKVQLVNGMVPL
Chain of SRSF protein kinase 1 (Homo sapiens) (Q96SB4 whole entry): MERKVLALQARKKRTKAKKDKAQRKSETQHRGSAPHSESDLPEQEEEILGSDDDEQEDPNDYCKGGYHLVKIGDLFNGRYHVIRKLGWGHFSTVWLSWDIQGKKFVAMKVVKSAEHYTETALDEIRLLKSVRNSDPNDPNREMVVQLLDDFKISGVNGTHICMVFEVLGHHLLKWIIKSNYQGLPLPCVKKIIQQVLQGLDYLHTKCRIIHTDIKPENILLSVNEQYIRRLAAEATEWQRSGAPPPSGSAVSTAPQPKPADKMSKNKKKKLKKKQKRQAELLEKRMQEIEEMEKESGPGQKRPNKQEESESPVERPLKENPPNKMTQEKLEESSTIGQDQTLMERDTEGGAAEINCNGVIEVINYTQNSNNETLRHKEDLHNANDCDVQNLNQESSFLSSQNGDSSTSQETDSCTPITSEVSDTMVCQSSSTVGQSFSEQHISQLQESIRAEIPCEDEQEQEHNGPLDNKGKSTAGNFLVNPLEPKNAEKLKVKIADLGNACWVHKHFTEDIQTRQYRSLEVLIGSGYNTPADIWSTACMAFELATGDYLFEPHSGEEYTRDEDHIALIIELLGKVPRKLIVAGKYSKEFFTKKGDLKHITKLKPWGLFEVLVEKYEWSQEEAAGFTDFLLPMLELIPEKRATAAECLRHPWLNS
Chain of Serine/threonine-protein kinase Nek7 (Homo sapiens) (Q8TDX7 whole entry, looked up): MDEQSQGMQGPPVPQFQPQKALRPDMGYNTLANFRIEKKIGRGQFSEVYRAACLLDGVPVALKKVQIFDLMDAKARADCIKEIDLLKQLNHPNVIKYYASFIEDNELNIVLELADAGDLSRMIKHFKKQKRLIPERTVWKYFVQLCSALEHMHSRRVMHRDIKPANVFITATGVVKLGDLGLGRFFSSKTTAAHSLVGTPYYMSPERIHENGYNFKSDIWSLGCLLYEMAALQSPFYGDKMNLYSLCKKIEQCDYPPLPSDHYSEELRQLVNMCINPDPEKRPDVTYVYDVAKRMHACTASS
Chain of Casein kinase II subunit alpha (Homo sapiens) (P68400 whole entry, looked up): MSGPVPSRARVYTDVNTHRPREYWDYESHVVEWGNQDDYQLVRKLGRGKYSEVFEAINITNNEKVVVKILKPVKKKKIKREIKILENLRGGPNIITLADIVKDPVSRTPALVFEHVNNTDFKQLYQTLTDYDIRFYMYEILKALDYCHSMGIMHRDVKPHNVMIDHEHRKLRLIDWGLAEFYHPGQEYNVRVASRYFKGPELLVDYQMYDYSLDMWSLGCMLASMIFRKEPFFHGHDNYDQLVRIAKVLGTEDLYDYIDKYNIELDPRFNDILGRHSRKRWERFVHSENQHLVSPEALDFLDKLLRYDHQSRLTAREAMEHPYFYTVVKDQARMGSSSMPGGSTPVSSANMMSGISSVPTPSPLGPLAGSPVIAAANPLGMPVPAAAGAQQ
Chain of Serine/threonine-protein kinase 26 (Homo sapiens) (Q9P289 2-416 limits assumed): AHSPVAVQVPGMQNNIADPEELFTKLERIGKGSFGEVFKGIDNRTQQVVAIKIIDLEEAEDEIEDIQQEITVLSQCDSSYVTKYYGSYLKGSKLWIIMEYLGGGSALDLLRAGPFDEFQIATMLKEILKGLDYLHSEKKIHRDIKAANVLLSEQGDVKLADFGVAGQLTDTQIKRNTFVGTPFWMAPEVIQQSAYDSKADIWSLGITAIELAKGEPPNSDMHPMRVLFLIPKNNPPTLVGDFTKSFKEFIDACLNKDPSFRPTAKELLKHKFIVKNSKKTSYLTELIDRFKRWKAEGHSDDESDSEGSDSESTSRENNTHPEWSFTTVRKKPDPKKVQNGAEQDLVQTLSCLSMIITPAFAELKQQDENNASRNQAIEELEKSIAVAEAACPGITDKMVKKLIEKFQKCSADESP
Chain of Dual specificity mitogen-activated protein kinase kinase 1 (Homo sapiens) (Q02750 whole entry): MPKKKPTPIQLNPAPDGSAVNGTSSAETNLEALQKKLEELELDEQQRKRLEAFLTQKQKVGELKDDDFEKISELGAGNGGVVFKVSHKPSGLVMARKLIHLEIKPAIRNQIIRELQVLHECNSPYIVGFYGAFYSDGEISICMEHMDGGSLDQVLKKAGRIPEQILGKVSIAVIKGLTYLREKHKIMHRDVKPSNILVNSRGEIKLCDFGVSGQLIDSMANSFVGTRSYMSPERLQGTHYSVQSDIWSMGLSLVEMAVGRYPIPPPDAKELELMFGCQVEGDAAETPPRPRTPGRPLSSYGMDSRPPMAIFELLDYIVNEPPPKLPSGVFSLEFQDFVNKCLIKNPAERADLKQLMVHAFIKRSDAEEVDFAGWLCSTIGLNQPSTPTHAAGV
Chain of Serine/threonine-protein kinase pim-1 (Homo sapiens) (P11309 whole entry, looked up): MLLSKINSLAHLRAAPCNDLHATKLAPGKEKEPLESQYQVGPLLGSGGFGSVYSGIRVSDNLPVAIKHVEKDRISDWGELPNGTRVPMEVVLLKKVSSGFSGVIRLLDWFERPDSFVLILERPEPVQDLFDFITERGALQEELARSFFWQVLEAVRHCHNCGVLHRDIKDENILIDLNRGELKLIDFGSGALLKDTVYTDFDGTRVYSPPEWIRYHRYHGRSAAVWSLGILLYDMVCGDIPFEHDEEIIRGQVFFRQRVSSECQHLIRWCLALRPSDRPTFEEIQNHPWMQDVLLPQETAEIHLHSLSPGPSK
Chain of 3',5'-cyclic-AMP phosphodiesterase 7B (Q9NP56 whole entry): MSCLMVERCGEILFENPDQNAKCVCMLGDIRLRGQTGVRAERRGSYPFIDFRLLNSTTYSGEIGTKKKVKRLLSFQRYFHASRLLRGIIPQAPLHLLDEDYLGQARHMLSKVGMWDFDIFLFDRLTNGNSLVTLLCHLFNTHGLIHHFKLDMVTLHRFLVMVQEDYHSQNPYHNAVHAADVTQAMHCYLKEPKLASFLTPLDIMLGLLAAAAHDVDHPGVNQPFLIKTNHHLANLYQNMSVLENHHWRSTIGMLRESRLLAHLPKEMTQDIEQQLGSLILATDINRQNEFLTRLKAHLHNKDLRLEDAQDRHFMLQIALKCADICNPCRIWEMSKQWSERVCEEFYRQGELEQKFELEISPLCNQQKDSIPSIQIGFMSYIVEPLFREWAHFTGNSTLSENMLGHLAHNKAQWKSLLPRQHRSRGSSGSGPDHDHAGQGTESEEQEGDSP
Chain of Histamine H3 receptor (Homo sapiens) (Q9Y5N1 whole entry): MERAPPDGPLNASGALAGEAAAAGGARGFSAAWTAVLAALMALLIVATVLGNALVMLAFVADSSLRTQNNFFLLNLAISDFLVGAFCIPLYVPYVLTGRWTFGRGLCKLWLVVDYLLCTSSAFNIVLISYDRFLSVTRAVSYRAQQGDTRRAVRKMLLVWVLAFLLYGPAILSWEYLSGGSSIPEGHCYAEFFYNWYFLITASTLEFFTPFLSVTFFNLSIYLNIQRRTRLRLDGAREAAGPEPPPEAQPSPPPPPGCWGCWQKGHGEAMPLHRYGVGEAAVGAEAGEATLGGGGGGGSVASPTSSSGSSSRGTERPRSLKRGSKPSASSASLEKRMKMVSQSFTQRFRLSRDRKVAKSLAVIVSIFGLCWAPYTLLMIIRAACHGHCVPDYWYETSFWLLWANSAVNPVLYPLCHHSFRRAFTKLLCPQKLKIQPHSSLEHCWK
Chain of D(2) dopamine receptor (Homo sapiens) (P14416 whole entry): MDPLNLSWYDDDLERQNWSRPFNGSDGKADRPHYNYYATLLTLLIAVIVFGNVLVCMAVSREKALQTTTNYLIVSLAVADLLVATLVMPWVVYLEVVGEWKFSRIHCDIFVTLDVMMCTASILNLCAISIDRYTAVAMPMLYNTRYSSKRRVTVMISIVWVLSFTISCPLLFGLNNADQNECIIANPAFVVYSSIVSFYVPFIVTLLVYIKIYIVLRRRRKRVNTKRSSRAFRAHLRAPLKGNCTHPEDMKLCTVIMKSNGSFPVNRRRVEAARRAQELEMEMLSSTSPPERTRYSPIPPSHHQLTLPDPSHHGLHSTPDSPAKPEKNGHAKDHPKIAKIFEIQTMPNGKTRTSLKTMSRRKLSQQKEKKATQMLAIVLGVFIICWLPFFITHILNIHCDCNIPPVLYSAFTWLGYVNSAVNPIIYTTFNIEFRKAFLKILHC

Structure (SMILES) | delta Tm Staurosporine positive control [1] | ΔTm [1] | delta Tm Staurosporine positive control [2] | ΔTm [2] | delta Tm Staurosporine positive control [3] | ΔTm [3] | delta Tm Staurosporine positive control [4] | ΔTm [4] | delta Tm Staurosporine positive control [5] | ΔTm [5] | delta Tm Staurosporine positive control [6] | ΔTm [6] | delta Tm Staurosporine positive control [7] | ΔTm [7] | delta Tm Staurosporine positive control [8] | ΔTm [8] | delta Tm Staurosporine positive control [10] | ΔTm [10] | delta Tm Staurosporine positive control [11] | ΔTm [11] | other results
CCC[C@@H]1CNCc2c1[nH]c(=O)c(C#N)c2N1CCC2(CC1)CC2 | 4.47 | -0.184 | 8.03 | 0.124 | -0.489 | -0.956 | 6.3 | -0.203 | 7.17 | -0.188 | 7.02 | -2.16 | 8.04 | -0.589 | 4.25 | -1.52 | 12.2 | -0.124 | 6.5 | -1.81 | inhibition [9]: 6.8%
CCC[C@H]1CNCc2c1[nH]c(=O)c(C#N)c2N1CCC2(CC1)CC2 | 4.47 | -0.228 | 8.03 | 0.098 | -0.489 | -0.134 | 6.3 | -0.252 | 7.17 | -0.269 | 7.02 | -2.51 | 8.04 | -0.544 | 4.25 | -1.22 | 12.2 | -0.108 | 6.5 | -1.58 | inhibition [12]: 11%; IC50 [13]: > 10 µM (not active); inhibition [14]: 25%; inhibition [15]: 5%; inhibition [16]: -2%; inhibition [17]: 4%
